Like-named read-outs stand apart in the source and are kept apart here.
Target: T1, human S1P3 receptor (Homo sapiens, UniProt Q99500)
T1 construct: expressed in transfected cells
Test: FLIPR calcium (Fluo-4) assay for activation or block of activation of human S1P3 receptor in T24 cells
Assay type: cell-based
Experimental: The compounds of the invention are assessed for their ability to activate or block activation of the human S1P3 receptor in T24 cells stably expressing the human S1P3 receptor using the method described in paragraph [0067] of United States Patent Application Publication No. 20070232682, which published on Oct. 4, 2007, which is hereby incorporated by reference in its entirety.
Ten thousands cells/well are plated into 384-well poly-D-lysine coated plates one day prior to use. The growth media for the S1P3 receptor expressing cell line is McCoy's 5A medium supplemented with 10% charcoal-treated fetal bovine serum (FBS), 1% antibiotic-antimycotic and 400 μg/ml geneticin. On the day of the experiment, the cells are washed twice with Hank's Balanced Salt Solution supplemented with 20 mM HEPES (HBSS/Hepes buffer). The cells are then dye loaded with 2 μM Fluo-4 diluted in the HBSS/Hepes buffer with 1.25 mM Probenecid and incubated at 37° C. for 40 minutes. Extracellular dye is removed by washing the cell plates four times prior to placing the plates in the FLIPR (Fluorometric Imaging Plate Reader, Molecular Devices). Ligands are diluted in HBSS/Hepes buffer and prepared in 384-well microplates. The positive control, Sphingosine-1-phosphate (S1P), is diluted in HBSS/Hepes buffer with 4 mg/ml fatty acid free bovine serum albumin. The FLIPR transfers 12.5 μl from the ligand microplate to the cell plate and takes fluorescent measurements for 75 seconds, taking readings every second, and then for 2.5 minutes, taking readings every 10 seconds. Compounds are tested over the concentration range of 0.61 nM to 10,000 nM. Data for calcium ion (Ca^+2) responses are obtained in arbitrary fluorescence units and not translated into Ca^+2 concentrations. IC50 values (nM) are determined through a […] analysis using the Levenburg Marquardt algorithm.

[1] = T24 cells stably expressing the human S1P3 receptor, tested over 0.61 nM to 10,000 nM
[2] = T24 cells stably expressing the human S1P3 receptor, tested over 0.61 nM to 10,000 nM, read-out: S1P3 IC50

T1 sequence (Q99500 whole entry): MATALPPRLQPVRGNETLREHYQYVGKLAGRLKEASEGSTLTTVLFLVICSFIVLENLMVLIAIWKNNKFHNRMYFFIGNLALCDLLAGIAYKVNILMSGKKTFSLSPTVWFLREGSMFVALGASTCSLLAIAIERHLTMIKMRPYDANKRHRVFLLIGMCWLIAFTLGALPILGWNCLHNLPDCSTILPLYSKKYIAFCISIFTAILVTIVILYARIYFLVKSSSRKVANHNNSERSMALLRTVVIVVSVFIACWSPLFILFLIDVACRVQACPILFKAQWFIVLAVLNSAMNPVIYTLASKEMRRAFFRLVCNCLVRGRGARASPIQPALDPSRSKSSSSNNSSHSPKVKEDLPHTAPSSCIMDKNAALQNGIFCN

Row | S1P3 % Inhibition [1] [%] | IC50 [2] [nM] | Compound | IC50 [nM]
1 | 98 | 8 | O=C(Nc1cc2c3c(c1)C(c1ccc(F)cc1)CCN3CCC2c1ccc(F)cc1)OCCF (centres unmarked) [Compound 067] | 
2 | 102 |  | CCOC(=O)Nc1cc2c3c(c1)C(c1cccc(F)c1)CCN3CCC2c1cccc(F)c1 (centres unmarked) [Compound 093, Ethyl 1,7-bis(3-fluorophenyl)-1,2,3,5,6,7-hexahydropyrido[3,2,1-ij]quinolin-9-ylcarbamate] | 
3 | 101 |  | CCCOC(=O)Nc1cc2c3c(c1)C(c1cccc(F)c1)CCN3CCC2c1cccc(F)c1 (centres unmarked) [Compound 094, Propyl 1,7-bis(3-fluorophenyl)-1,2,3,5,6,7-hexahydropyrido[3,2,1-ij]quinolin-9-ylcarbamate] | 
4 | 102 |  | O=C(Nc1cc2c3c(c1)C(c1ccccc1)CCN3CCC2c1ccccc1)OCCF (centres unmarked) [Compound 095, 2-fluoroethyl 1,7-diphenyl-1,2,3,5,6,7-hexahydropyrido[3,2,1-ij]quinolin-9-ylcarbamate] | 
5 | 101 |  | CC(C)(C)NC(=O)Nc1cc2c3c(c1)C(c1ccccc1)CCN3CCC2c1ccccc1 (centres unmarked) [Compound 148, 1-tert-butyl-3-(1,7-diphenyl-1,2,3,5,6,7-hexahydropyrido[3,2,1-ij]quinolin-9-yl)urea] | 
6 | 98 |  | CCCCOC(=O)Nc1cc2c3c(c1)C(c1cccc(F)c1)CCN3CCC2c1cccc(F)c1 (centres unmarked) [Compound 202, Butyl 1,7-bis(3-fluorophenyl)-1,2,3,5,6,7-hexahydropyrido[3,2,1-ij]quinolin-9-ylcarbamate] | 
7 | 99 |  | O=C(Nc1cc2c3c(c1)C(c1ccccc1)CCN3CCC2c1ccccc1)OCCCCl (centres unmarked) [Compound 205, 3-chloropropyl 1,7-diphenyl-1,2,3,5,6,7-hexahydropyrido[3,2,1-ij]quinolin-9-ylcarbamate] | 
8 | 100 |  | O=C(Nc1cc2c3c(c1)C(c1ccccc1)CCN3CCC2c1ccccc1)OCCCCCl (centres unmarked) [Compound 206, 4-chlorobutyl 1,7-diphenyl-1,2,3,5,6,7-hexahydropyrido[3,2,1-ij]quinolin-9-ylcarbamate] | 
9 | 99 |  | CCCNC(=S)Nc1cc2c3c(c1)C(c1ccccc1)CCN3CCC2c1ccccc1 (centres unmarked) [Compound 255, 1-(1,7-diphenyl-1,2,3,5,6,7-hexahydropyrido[3,2,1-ij]quinolin-9-yl)-3-propylthiourea] | 
10 | 100 |  | CCCCCCNC(=S)Nc1cc2c3c(c1)C(c1ccccc1)CCN3CCC2c1ccccc1 (centres unmarked) [Compound 256, 1-(1,7-diphenyl-1,2,3,5,6,7-hexahydropyrido[3,2,1-ij]quinolin-9-yl)-3-hexylthiourea] | 
11 | 100 |  | O=C(NCc1ccoc1)Nc1cc2c3c(c1)C(c1ccccc1)CCN3CCC2c1ccccc1 (centres unmarked) [Compound 258, 1-(1,7-diphenyl-1,2,3,5,6,7-hexahydropyrido[3,2,1-ij]quinolin-9-yl)-3-(furan-3-ylmethyl)urea] | 
12 | 98 | 5 | COC(=O)Nc1cc2c3c(c1)C(c1ccc(F)cc1)CCN3CCC2c1ccc(F)cc1 (centres unmarked) [Compound 268] | 
13 | 102 |  | COC(=O)Nc1cc2c3c(c1)C(c1ccccc1)CCN3CCC2c1ccccc1 (centres unmarked) [Compound 272, methyl 1,7-diphenyl-1,2,3,5,6,7-hexahydropyrido[3,2,1-ij]quinolin-9-ylcarbamate] | 
14 | 101 |  | CCOC(=O)Nc1cc2c3c(c1)C(c1ccccc1)CCN3CCC2c1ccccc1 (centres unmarked) [Compound 273, Ethyl 1,7-diphenyl-1,2,3,5,6,7-hexahydropyrido[3,2,1-ij]quinolin-9-ylcarbamate] | 
15 | 100 |  | CC(C)COC(=O)Nc1cc2c3c(c1)C(c1ccccc1)CCN3CCC2c1ccccc1 (centres unmarked) [Compound 274, Isobutyl 1,7-diphenyl-1,2,3,5,6,7-hexahydropyrido[3,2,1-ij]quinolin-9-ylcarbamate] | 
16 | 100 |  | CCCOC(=O)Nc1cc2c3c(c1)C(c1ccccc1)CCN3CCC2c1ccccc1 (centres unmarked) [Compound 275, Propyl 1,7-diphenyl-1,2,3,5,6,7-hexahydropyrido[3,2,1-ij]quinolin-9-ylcarbamate] | 
17 | 101 |  | CCCCOC(=O)Nc1cc2c3c(c1)C(c1ccccc1)CCN3CCC2c1ccccc1 (centres unmarked) [Compound 276, Butyl 1,7-diphenyl-1,2,3,5,6,7-hexahydropyrido[3,2,1-ij]quinolin-9-ylcarbamate] | 
18 | 101 |  | O=C(Nc1cc2c3c(c1)C(c1ccccc1)CCN3CCC2c1ccccc1)OCc1ccccc1 (centres unmarked) [Compound 278, Benzyl 1,7-diphenyl-1,2,3,5,6,7-hexahydropyrido[3,2,1-ij]quinolin-9-ylcarbamate] | 
19 | 97 |  | C#CCOC(=O)Nc1cc2c3c(c1)C(c1ccccc1)CCN3CCC2c1ccccc1 (centres unmarked) [Compound 352, Prop-2-ynyl 1,7-diphenyl-1,2,3,5,6,7-hexahydropyrido[3,2,1-ij]quinolin-9-ylcarbamate] | 
20 | 98 |  | CN(C)C(=O)Nc1cc2c3c(c1)C(c1ccccc1)CCN3CCC2c1ccccc1 (centres unmarked) [Compound 405, 3-(1,7-diphenyl-1,2,3,5,6,7-hexahydropyrido[3,2,1-ij]quinolin-9-yl)-1,1-dimethylurea] | 
21 | 89 | 874 | CCCNC(=O)c1cc2c3c(c1)C(c1ccccc1)CCN3CCC2c1ccccc1 (centres unmarked) [Compound 409, 1,7-diphenyl-N-propyl-1,2,3,5,6,7-hexahydropyrido[3,2,1-ij]quinoline-9-carboxamide] | 
22 | 98 | 210 | CCCCNC(=O)c1cc2c3c(c1)C(c1ccccc1)CCN3CCC2c1ccccc1 (centres unmarked) [Compound 481, N-butyl-1,7-diphenyl-1,2,3,5,6,7-hexahydropyrido[3,2,1-ij]quinoline-9-carboxamide] | 
23 | 101 |  | CCNC(=O)Nc1cc2c3c(c1)C(c1ccccc1)CCN3CCC2c1ccccc1 (centres unmarked) [Compound 484, 1-(1,7-diphenyl-1,2,3,5,6,7-hexahydropyrido[3,2,1-ij]quinolin-9-yl)-3-ethylurea] | 
24 | 100 |  | CCCCNC(=O)Nc1cc2c3c(c1)C(c1ccccc1)CCN3CCC2c1ccccc1 (centres unmarked) [Compound 485, 1-Butyl-3-(1,7-diphenyl-1,2,3,5,6,7-hexahydropyrido[3,2,1-ij]quinolin-9-yl)urea] | 
25 | 100 | 82 | CCCCCNC(=O)Nc1cc2c3c(c1)C(c1ccccc1)CCN3CCC2c1ccccc1 (centres unmarked) [Compound 486, 1-(1,7-diphenyl-1,2,3,5,6,7-hexahydropyrido[3,2,1-ij]quinolin-9-yl)-3-pentylurea] | 
26 | 100 |  | CCCCCCNC(=O)Nc1cc2c3c(c1)C(c1ccccc1)CCN3CCC2c1ccccc1 (centres unmarked) [Compound 487, 1-(1,7-diphenyl-1,2,3,5,6,7-hexahydropyrido[3,2,1-ij]quinolin-9-yl)-3-hexylurea] | 

Row | Compound | S1P3 % Inhibition [1] [%] | IC50 [2] [nM] | IC50 [nM]
27 | CCNC(=O)Nc1cc2c3c(c1)[C@](C)(c1ccccc1)CCN3CC[C@@]2(C)c1ccccc1 [Compound 249, 1-((1S,7S)-1,7-dimethyl-1,7-diphenyl-1,2,3,5,6,7-hexahydropyrido[3,2,1-ij]quinolin-9-yl)-3-ethylurea] | 100 | 194 | 
28 | CCCNC(=O)Nc1cc2c3c(c1)[C@](C)(c1ccccc1)CCN3CC[C@@]2(C)c1ccccc1 [Compound 250, 1-((1S,7S)-1,7-dimethyl-1,7-diphenyl-1,2,3,5,6,7-hexahydropyrido[3,2,1-ij]quinolin-9-yl)-3-propylurea] | 100 | 523 | 
29 | O=C(Nc1cc2c3c(c1)C(c1ccccc1)CCN3CCC2c1ccccc1)Oc1ccccc1 (centres unmarked) [Compound 277, Phenyl 1,7-diphenyl-1,2,3,5,6,7-hexahydropyrido[3,2,1-ij]quinolin-9-ylcarbamate] | 91 |  | 
30 | CCCOC(=O)Nc1cc2c3c(c1)[C@@](C)(c1ccccc1)CCN3CC[C@@]2(C)c1ccccc1 [Compound 355, Propyl (1R,7S)-1,7-dimethyl-1,7-diphenyl-1,2,3,5,6,7-hexahydropyrido[3,2,1-ij]quinolin-9-ylcarbamate] | 98 | 316 | 
31 | CC(C)(C)NC(=O)Nc1cc2c3c(c1)[C@@](C)(c1ccccc1)CCN3CC[C@@]2(C)c1ccccc1 [Compound 580, 1-t-butyl-3-((1R,7S)-1,7-dimethyl-1,7-diphenyl-1,2,3,5,6,7-hexahydropyrido[3,2,1-ij]quinolin-9-yl)urea] | 99 |  | 62
32 | CC(C)(C)NC(=O)Nc1cc2c3c(c1)[C@](C)(c1ccccc1)CCN3CC[C@@]2(C)c1ccccc1 [Compound 581, 1-t-butyl-3-((1S,7S)-1,7-dimethyl-1,7-diphenyl-1,2,3,5,6,7-hexahydropyrido[3,2,1-ij]quinolin-9-yl)urea] | 98 | 349 | 
33 | CSC(=O)Nc1cc2c3c(c1)[C@@](C)(c1ccccc1)CCN3CC[C@@]2(C)c1ccccc1 [Compound 582, S-methyl (1R,7S)-1,7-dimethyl-1,7-diphenyl-1,2,3,5,6,7-hexahydropyrido[3,2,1-ij]quinolin-9-ylcarbamothioate] | 99 |  | 4
